The values that follow come from patent US5496703A, “Indirect immunoassay for dioxinlike compounds” (priority 1993, dated 1996).

Structures are written as SMILES. pEC50: −log10 of the molar value. “And” between values parts separate entries of the source, which are not always exact repeats. Identical values can stand only once.

For data set [1], the system named is total hepatic S-9 protein tyrosylphosphorylation. Nature of the data set: ELISA with antiphosphotyrosine monoclonal antibody, total hepatic S-9 protein tyrosylphosphorylation, mice dosed i.p. The data set is classed as in vivo, C57BL/6 mice. As to the method:
Female, C57BL/6 mice (or any cytochrome P-450IA1 inducible strain) were obtained from Harton Sprague Dawley (Indianapolis, Ind.). Experiments were performed using four to six week old, female mice weighing approximately 16 to 20 g. Mice were fed Prolab RMH 1000 rat, mouse and hamster food (Agway, Cortland, N.Y.) and received tap water ad libitum. All mice were housed three to five per cage and maintained on a photoperiod of 12 hours. Mice were killed 24 hours following an intraperitoneal injection of either corn oil alone or TCDD (Analabs) at 0.25, 0.5, 1, 2, 4, 10, 50 μg/kg, the volume of the injections ranged from 0.1 to 0.2 ml per mouse. Hepatic S-9 fractions were prepared by homogenizing the liver in 3 times the volume of 0.15M KCl. Following a 9000×g centrifugation for 20 minutes, the supernatant (S-9) fraction was carefully removed and quickly frozen for storage at -80° C.
ELISA were performed with 96-well microtiter plates precoated with antigen. S-9 was used as antigen and was prepared as a series of geometric dilutions ranging from 0.4 to 500 μg protein/mL PBS. One-tenth mL from each dilution was promptly pipetted into the wells of a the microtiter plate in quadruplicate. Plates were incubated overnight at 4° C. After washing with 0.05% Tween 20 (polyoxyethylenesorbitan monolaurate) in phosphate buffered saline (PBS), individual wells were saturated with 0.2 mL bovine serum albumin (20 mg/mL in PBS) for 2 hours at 37° C. Wells were then incubated with antiphosphotyrosine monoclonal antibody (1.5 μg/mL ascites fluid) in 1 mg/mL bovine serum albumin and 0.05% Tween 20 in PBS, and bound for 1 to 1.5 hours at 22° C. Incubation with horseradish peroxidase-linked antimouse IgG (Sigma, St. Louis; 0.5×10^3 mg IgG/mL PBS) and subsequent washing was performed as with the original monoclonal antibody. Peroxidase activity was determined after incubation with substrate (0.03% H2 O2 and 1 mM 2,2'-azinodi(d-ethyl-benzthiazoline sulfonic acid-6) dissolved in 100 mM sodium citrate (pH 4.2) at 22° C. At the first visualization of color change A415 values were recorded.
A general note: In an ELISA, binding on a coated surface is turned into a signal by an enzyme label.

Data set [2] relates to cytochrome P-450IA1. Nature of the data set: Ethoxyresorufin O-deethylase assay (EROD), X3 cells. Particulars: 16 hours. In kind it is cell-based, human. As to the method: The X3 human lymphoblastoma cells (Genetest, Wolburn, Mass.) were grown in 75 cm^2 T-flasks in RPMI 1640 medium (Gibco) containing 9% horse serum. Any cell or cell line expressing cytochrome P-450IA1 may be used. The cells were cultured at 37° C. in a 5% CO2 (balance air) environment. Cells were subcultured by centrifuging (1000 rpm, 3 minutes) and resuspended in fresh media to a volume of 50 mL (at a cell density of 1.0×10^6 cells/mL). The TCDD-corn oil solution was homogenized with serum to a final concentration of 0.10 μg/mL. The TCDD-serum was added at concentrations of 0, 0.02, 0.05, 0.1, 0.5 and 1.0 nM per flask and incubated for 16 hours. […] A final cell count was then determined.
Resorufin (hydroxyphenoxazone) and ethoxyresorufin were purchased from Molecular Probes (Junction City, Oreg.). EROD was measured by following the increase in fluorescence due to the formation of resorufin by dealkylation of its ethoxy derivative. […] A baseline of fluorescence was recorded at an excitation wavelength of 530 nm and an emission wavelength of 585 nm. The reaction was started with the addition of NADPH and the dealkylation of the derivative to resorufin was followed by a progressive increase in fluorescence as resorufin was generated. Recordings were standardized by measuring the fluorescence of freshly generated resorufin from resorufin acetate (Sigma, St. Louis, Mo.) prior to each assay. […]

Data set [3] has as its system Ah receptor. Particulars: C57BL/6J mouse; cited from earlier work.
For data set [4], the system named is AHH and delta-ALA (delta-aminolaevulinic acid) synthetase. Particulars: versus other inducers, such as 3-methyl-cholanthrene; cited from earlier work.
For data set [5] the following is noted: single human; cited from earlier work.
The conditions of data set [6]: cited from earlier work.
For data set [7], the system named is rodents. Particulars: guinea pig to hamster; cited from earlier work.
Data set [8] concerns C57BL/6J mouse strain. As to conditions: cited from earlier work.
For data set [9], the system named is DBA/2 strain. As to conditions: DBA/2 mouse; cited from earlier work.

Broadly, the ED50 is the midpoint of the dose-response relation. In general, pEC50 refers to −log10 of the EC50, conventionally taken in molar units. For `Clc1cc2c(cc1Cl)Oc1cc(Cl)c(Cl)cc1O2` [TCDD, 2,3,7,8-tetrachlorodibenzo-p-dioxin], in data set [1] (ELISA, i.p., 24 hours after dosing, female C57BL/6 mice), the “dose of maximal total protein tyrosylphosphorylation” value is on record as 2 μg TCDD/kg. Moreover, in [1] (Mus musculus, ip, ELISA, i.p., 24 hours after dosing, female C57BL/6 mice, read-out: median effective dose (ED50), total hepatic S-9 pTP), the ED50 came out at 0.5 µg/kg. Besides, in [1] (ratio to EROD ED50 (A3), C57BL/6 mice), the “separation of ED50s for total protein or 44 kDalton pTP and EROD” value turned out to be 10 factor. The “concentration of maximal EROD activity” value in data set [2] is 2 nM and 1 nM. This compound also gave a pEC50 in [2] (probit model) of 9.52. In data set [3], the “hepatic level of Ah receptor capable of binding TCDD” value is recorded as 40-120 fmol/mg of protein. Besides, in data set [4], the “potency in induction of AHH and delta-ALA synthetase” value is “orders of magnitude more potent”. Also, the half-life in data set [5] is given as 5.8 year. Besides, the “difference in whole body half-life between guinea pig and hamster” value in data set [6] (guinea pig versus hamster) is listed as 3 fold. In data set [6] (rodents), the whole-body half-life result is given as “on the order of weeks”. Further, the “range of LD50 among rodents” value in data set [7] is recorded as not below 2500 fold. The “susceptibility to TCDD-induced toxicity” value in data set [8] is “very susceptible”. Also, in data set [9], the “susceptibility to TCDD toxicity” value was “relatively resistant”.
